Here are results for six compounds from patent US20250304533A1, “THERAPEUTIC ALKALOID COMPOUNDS” (Sensorium Therapeutics, Inc., priority 2022, published 2025).

Data set [1] addresses T1, SERT (Homo sapiens, UniProt P31645).
T1 construct: expressed in transfected cells
In words: SERT Inhibition Assay of Example A1 (Neurotransmitter Transporter fluorescence uptake, stable 5HTT cells). It counts as cell-based. On the procedure: SERT inhibition was measured using a Neruotransmitter Transportation Fluorescence assay. Briefly, stable 5HTT cells were prepared in a 384 microwell plate. Compounds were prepared by in assay buffer (20 mM HEPES, 0.1% BSA). The compounds were added to the plated cells and incubated for 30 minutes at 37° C. 25 μL of dye solution (Molecular Devices Neurotransmitter Transporter Uptake Assay Kit) is added per well and incubated for 30 minutes at 37° C. The plates are then read on a plate reader.

In data set [2] the target is T2, PDE4A1A (Homo sapiens, UniProt P27815).
T2 construct: purchased BPSBioscience
In words: Recombinant PDE4 Inhibition Assay of Example A2. The format is biochemical. The note with it: recombinant enzyme. On the procedure:
(§1) Recombinant PDE assay inhibition can be measured according to the BPSBioscience PDE4 assay kit, as described below.
(§2) 1) Dilute 20 µM FAM-Cyclic-3′,5′-AMP stock 100-fold with PDE buffer to make a 200 nM solution. Make only sufficient quantity needed for the assay; store remaining […] stock solution in aliquots at −20° C. 2) Add 25 μl of FAM-Cyclic-3′,5′-AMP (200 nM) to each well designated “Positive Control”, “Test Inhibitor”, and “Substrate Control”. 3) Add 20 μl of PDE assay buffer to each well designated “Substrate Control” and 45 μl of PDE assay buffer to each well designated “Blank”. 4) Add 5 μl of inhibitor solution to each well designated “Test Inhibitor”. For the wells labeled “Positive Control”, “Substrate Control” and “Blank”, add 5 μl of the same solution without inhibitor (inhibitor buffer). 5) Thaw PDE on ice. Upon first thaw, briefly spin tube containing enzyme to recover the full contents of the tube. 6) Dilute PDE4 in PDE buffer to 7.5 pg/μl (0.15 ng/reaction)*. Initiate reaction by adding 20 μl of PDE4 (7.5 pg/μl) to the wells designated “Positive Control” and “Test Inhibitor.” 7) Incubate at room temperature for 1 hour.
(§3) 1) Mix binding agent thoroughly and dilute binding agent 1:100 with binding agent diluent. 2) Add 100 μl diluted binding agent to each microwell. Incubate at room temperature for 1 hour with slow shaking. 3) Read the fluorescent polarization of the sample in a microtiter-plate reader equipped for the measurement of fluorescence polarization, capable of excitation at wavelengths ranging from 485±5 nm and detection of emitted light ranging from 528±10 nm. Blank value is subtracted from all other values.

Data set [3] deals with T3, PDE4B2 (Homo sapiens, UniProt Q07343).
T3 construct: purchased BPSBioscience
In words: Recombinant PDE4 Inhibition Assay of Example A2. It counts as biochemical. The note with it: recombinant enzyme. On the procedure:
as §1, §2, §3

In data set [4] the target is T4, PDE4C1 (Homo sapiens, UniProt Q08493).
T4 construct: purchased BPSBioscience
In words: Recombinant PDE4 Inhibition Assay of Example A2. The format is biochemical. The note with it: recombinant enzyme. On the procedure: as §1, §2, §3

For data set [5], the target named is T5, PDE4D2 (Homo sapiens, UniProt Q08499).
T5 construct: purchased BPSBioscience
Kind of data set: Recombinant PDE4 Inhibition Assay of Example A2. The format is biochemical. The note with it: recombinant enzyme. On the procedure:
as §1, §2, §3

For data set [6] the following is noted: cited from earlier work.
In data set [7] the target is 5-HT transporter (“SERT”) (Homo sapiens, UniProt P31645). The note with it: Hill coefficient of binding curve, Harvey et al., 2011; cited from earlier work.
Where [8] appears, read: class symbols, read-out: SERT IC50.

Read-outs that look alike come from different tables or passages of the source. Bounds are passed on as bounds.

T4 sequence (Q08493 whole entry): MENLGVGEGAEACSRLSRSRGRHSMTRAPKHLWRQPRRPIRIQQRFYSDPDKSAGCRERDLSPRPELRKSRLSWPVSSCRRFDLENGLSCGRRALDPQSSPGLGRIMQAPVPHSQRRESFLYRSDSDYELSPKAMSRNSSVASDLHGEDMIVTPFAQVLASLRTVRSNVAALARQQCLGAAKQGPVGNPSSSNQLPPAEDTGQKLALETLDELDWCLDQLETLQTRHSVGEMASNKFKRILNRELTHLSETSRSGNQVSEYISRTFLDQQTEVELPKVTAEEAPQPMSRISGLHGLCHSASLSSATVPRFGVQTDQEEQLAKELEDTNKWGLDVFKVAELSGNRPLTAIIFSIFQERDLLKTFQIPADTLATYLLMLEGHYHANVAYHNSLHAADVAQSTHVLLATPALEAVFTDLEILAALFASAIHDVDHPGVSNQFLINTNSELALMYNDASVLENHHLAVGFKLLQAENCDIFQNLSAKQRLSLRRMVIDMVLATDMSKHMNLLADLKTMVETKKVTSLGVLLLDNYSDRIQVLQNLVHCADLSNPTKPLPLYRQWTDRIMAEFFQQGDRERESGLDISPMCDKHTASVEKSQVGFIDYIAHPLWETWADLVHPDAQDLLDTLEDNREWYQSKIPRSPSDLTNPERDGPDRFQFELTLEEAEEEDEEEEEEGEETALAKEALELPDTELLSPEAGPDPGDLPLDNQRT
T1 sequence (P31645 whole entry, species assumed): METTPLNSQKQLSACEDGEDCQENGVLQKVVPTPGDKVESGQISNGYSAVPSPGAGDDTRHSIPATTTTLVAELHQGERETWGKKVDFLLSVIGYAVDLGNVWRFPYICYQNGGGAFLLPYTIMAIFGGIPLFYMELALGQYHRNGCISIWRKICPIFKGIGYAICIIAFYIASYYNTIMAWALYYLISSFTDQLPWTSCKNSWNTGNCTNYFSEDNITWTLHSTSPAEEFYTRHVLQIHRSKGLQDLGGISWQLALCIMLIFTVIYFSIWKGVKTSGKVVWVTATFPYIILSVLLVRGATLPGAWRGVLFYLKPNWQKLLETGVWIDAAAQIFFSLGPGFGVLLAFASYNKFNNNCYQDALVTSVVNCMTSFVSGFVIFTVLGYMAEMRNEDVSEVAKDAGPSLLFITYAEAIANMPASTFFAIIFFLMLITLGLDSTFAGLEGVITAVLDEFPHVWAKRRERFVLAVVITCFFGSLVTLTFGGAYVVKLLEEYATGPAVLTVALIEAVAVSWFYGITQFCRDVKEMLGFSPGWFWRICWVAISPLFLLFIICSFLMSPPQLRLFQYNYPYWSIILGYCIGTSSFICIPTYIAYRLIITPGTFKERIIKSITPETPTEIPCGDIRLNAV
T2 sequence (P27815 1-647 isoform P27815-4): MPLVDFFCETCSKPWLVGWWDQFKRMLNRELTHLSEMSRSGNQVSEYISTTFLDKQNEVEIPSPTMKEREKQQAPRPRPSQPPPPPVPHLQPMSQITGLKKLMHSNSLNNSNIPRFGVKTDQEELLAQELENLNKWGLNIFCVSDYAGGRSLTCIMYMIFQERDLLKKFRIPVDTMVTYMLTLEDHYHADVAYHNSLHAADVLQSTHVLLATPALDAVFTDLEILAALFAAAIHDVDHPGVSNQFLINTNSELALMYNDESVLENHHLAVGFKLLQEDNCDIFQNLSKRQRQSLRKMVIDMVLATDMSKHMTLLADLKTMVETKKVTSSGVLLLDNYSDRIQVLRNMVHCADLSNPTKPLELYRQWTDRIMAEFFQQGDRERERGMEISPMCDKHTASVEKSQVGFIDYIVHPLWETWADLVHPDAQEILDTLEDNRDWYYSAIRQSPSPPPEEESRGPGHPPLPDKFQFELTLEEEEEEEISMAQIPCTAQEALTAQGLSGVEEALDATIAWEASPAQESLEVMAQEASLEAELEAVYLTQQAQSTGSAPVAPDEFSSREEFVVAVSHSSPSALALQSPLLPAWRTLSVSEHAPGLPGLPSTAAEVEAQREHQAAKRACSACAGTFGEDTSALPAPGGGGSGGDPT
T3 sequence (Q07343 1-564 isoform Q07343-2): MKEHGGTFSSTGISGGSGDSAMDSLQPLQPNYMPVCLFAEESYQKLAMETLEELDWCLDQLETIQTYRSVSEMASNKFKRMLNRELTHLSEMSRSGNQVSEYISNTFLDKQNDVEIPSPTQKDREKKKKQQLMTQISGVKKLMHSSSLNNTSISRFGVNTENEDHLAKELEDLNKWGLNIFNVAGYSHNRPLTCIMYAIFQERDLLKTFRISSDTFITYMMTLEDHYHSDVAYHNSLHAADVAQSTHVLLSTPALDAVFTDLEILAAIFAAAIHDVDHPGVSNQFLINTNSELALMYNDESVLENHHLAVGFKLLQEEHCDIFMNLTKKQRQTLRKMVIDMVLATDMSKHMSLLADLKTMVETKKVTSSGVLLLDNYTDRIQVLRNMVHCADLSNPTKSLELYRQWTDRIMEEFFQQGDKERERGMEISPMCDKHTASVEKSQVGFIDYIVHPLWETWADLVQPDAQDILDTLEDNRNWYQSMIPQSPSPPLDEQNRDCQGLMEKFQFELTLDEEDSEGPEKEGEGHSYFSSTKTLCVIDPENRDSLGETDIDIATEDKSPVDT
T5 sequence (Q08499 303-809): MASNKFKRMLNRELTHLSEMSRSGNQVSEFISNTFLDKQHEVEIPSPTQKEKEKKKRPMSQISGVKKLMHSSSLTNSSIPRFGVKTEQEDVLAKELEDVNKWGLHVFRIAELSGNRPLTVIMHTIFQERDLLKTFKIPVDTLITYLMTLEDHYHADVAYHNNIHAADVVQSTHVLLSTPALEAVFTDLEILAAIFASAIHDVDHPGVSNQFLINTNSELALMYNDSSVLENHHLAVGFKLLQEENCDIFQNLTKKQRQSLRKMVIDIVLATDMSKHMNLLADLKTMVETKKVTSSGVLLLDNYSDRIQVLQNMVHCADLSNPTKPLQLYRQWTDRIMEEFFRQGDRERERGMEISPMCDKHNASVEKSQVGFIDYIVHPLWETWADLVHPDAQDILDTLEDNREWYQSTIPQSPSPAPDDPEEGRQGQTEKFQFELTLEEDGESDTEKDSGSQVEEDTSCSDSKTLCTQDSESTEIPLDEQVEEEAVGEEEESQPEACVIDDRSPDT
Chain of 5-HT transporter (“SERT”) (P31645 whole entry, species assumed): as the sequence (P31645 whole entry, species assumed) above

Turning to `COc1cc([C@@]23C=CC(=O)C[C@@H]2N(C)CC3)cc(I)c1OC` [Compound 132, (3aR,7aS)-3a-(3-iodo-4,5-dimethoxy-phenyl)-1-methyl-2,3,7,7a-tetrahydroindol-6-one], the IC50 in data set [1] (setting [8]) is 100 to 500 nM; in data set [1] (read-out: SERT inhibition IC50), less than 1000 nM; in data set [2], more than 10 µM; in data set [3], more than 10 µM; in data set [4], more than 10 µM; in data set [5], more than 10 µM.

`COc1ccc([C@@]23CCC(=O)C[C@@H]2N(C)CC3)cc1OC` [(−) mesembrine]: the half-life in plasma entry in data set [6] was “less than 2 hours”.

In the case of `COc1cc([C@@]23C=CC(=O)CC2N(C)CC3)cc(Br)c1OC` (stereo partly drawn) [Compound 130, (3aR)-3a-(3-bromo-4,5-dimethoxy-phenyl)-1-methyl-2,3,7,7a-tetrahydroindol-6-one], the IC50 is 500 to 1000 nM in data set [1] (setting [8]); less than 1000 nM in data set [1] (read-out: SERT inhibition IC50); more than 10 µM in data set [2]; more than 10 µM in data set [3]; more than 10 µM in data set [4]; more than 10 µM in data set [5].

For the compound `COc1cc([C@@]23C=CC(=O)C[C@@H]2N(C)CC3)cc(F)c1OC` [Compound 133, (3aR,7aS)-3a-(3-fluoro-4,5-dimethoxy-phenyl)-1-methyl-2,3,7,7a-tetrahydroindol-6-one], the IC50 in data set [1] (setting [8]) is 100 to 500 nM; in data set [1] (read-out: SERT inhibition IC50), less than 1000 nM; in data set [2], 1 to 10 µM; in data set [3], 1 to 10 µM; in data set [4] it was more than 10 µM; in data set [5] it was more than 10 µM.

In the case of `COc1ccc([C@@]23C=CC(=O)C[C@@H]2N(C)CC3)cc1OC` [Mesembrenone], in data set [7], the “5-HT transporter (“SERT”) nH” value is 1.0.

Consider `COc1cc(C23C=CC(=O)CC2N(C)CC3)cc(OC)c1OC` (centres unmarked) [Compound 144, 1-methyl-3a-(3,4,5-trimethoxyphenyl)-2,3,7,7a-tetrahydroindol-6-one], for which the IC50 in data set [1] (setting [8]) was more than 1000 nM; in data set [1] (read-out: SERT inhibition IC50) it was more than 1000 nM; in data set [2], more than 10 µM; in data set [3], more than 10 µM; in data set [4], more than 10 µM; in data set [5], more than 10 µM.

Broadly, the IC50 is the concentration that gives 50% inhibition.
